According to patent US10526580B2, “Differentiated cell population of endothelial cells derived from human pluripotent stem cells, composition, system, kit and uses thereof” (BIOCANT-ASSOCIAÇÃO DE TRANSFERÊNCIA DE TECNOLOGIA, priority 2012, dated 2020):
Where a name gives a salt, the structure may show the parent alone.

Each compound was assayed on hESC-derived ECs versus HUAECs (assay: High-throughput screening of LOPAC library, PrestoBlue cell viability, hESC-derived ECs versus HUAECs). Conditions: LOPAC screen, 4.5 μM, 4 days, PrestoBlue assay.
Format: cell-based, human
Procedure: (§1) High-throughput screening (HTS). HUAECS (Lonza) and hESC-derived ECs were cultured in EGM-2 medium while human anterior cruciate ligament cells (ACL cells) were cultured in Dulbecco's modified Eagle's medium (DMEM; PAA) supplemented with 10% FBS, 0.2 mM ascorbic acid 2-phosphate magnesium salt (Sigma Aldrich), […] streptomycin and 100 U/mL penicillin (Life Technologies). ACL cells were isolated from patients that have signed an informed consent form, in compliance with the Dutch legislation. The ethical committee of Medisch Spectrum Twente Hospital approved the collection.
(§2) The LOPAC library (Sigma-Aldrich) was used to screen embryonic endothelial-specific cytotoxic compounds. The compounds were solubilized in DMSO. The final compound concentration used in the screen was 4.5 μM in a final volume of 200 μL per well (96-well plate). HUAECs, hESC-derived EC and ACL cells were seeded at 16,000 cells/well (HUAECs and hESC-derived ECs) and 5,000 cells/well (ACL cells) and allowed to reach near confluence (approximately two days). After two days, medium was exchanged and test compounds and controls were added to the 96-well plates (all wells contained 0.25% (v/v) DMSO). After 4 days of incubation, cell viability was assessed using a PrestoBlue (Invitrogen) assay. This assay is based on a resazurin-based solution that indicates the reducing power of living cells and therefore measures indirectly their number. For each measurement, cell medium was removed and the PrestoBlue solution (10%) was added for 3 h at 37° C. upon which the absorbance was measured at 560-590 nm.
(§3) Disruption of vascular development has been directly correlated with prenatal loss, malformations and neurodevelopmental problems^41-44. […] The library was screened at a single dosage of 4.5 μM in a volume of 200 μL per well of EGM-2 medium, containing 0.25% DMSO (v/v). […] Six compounds (danazol, chlorpromazine hydrochloride, ellipticine, 3′,4′-dichlorobenzamil, fluphenazine dihydrochloride and 7-cyclopentyl-5-(4-phenoxy)phenyl-7H-pyrrolo[2,3-d]pyrimidin-4-ylamine) affected cell viability in both cells by a difference of 20% (FIG. 4B). The six compounds belong to different classes: cell cycle, ion pumps, dopamine pathway, phosphorylation and hormone signaling. The compounds selected from the primary screen were then tested against hESC-derived ECs and HUAECs at eight different concentrations to obtain a dose-response curve (FIG. 4C and FIG. 14).

In order of falling “difference in cell viability between hESC-derived ECs and HUAECs” value:
1. OCCN1CCN(CCCN2c3ccccc3Sc3ccc(C(F)(F)F)cc32)CC1 [Fluphenazine dihydrochloride]  20%
2. Cc1c2ccncc2c(C)c2c1[nH]c1ccccc12 [Ellipticine]  20%
3. N/C(=N\C(=O)c1nc(Cl)c(N)nc1N)NCc1ccc(Cl)c(Cl)c1 [3′,4′-Dichlorobenzamil]  20%
4. CN(C)CCCN1c2ccccc2Sc2ccc(Cl)cc21 [Chlorpromazine hydrochloride]  20%
5. C#C[C@]1(O)CC[C@H]2[C@@H]3CCC4=Cc5oncc5C[C@]4(C)[C@H]3CC[C@@]21C [Danazol]  20%

The compounds below were run on hESC-derived ECs versus ACL cells (assay: High-throughput screening of LOPAC library, PrestoBlue cell viability, hESC-derived ECs versus ACL cells). Conditions: LOPAC screen, 4.5 μM, 4 days of incubation, PrestoBlue assay.
Format: cell-based, human
Procedure: as §1, §2, §3

In order of falling “Differences (%) in cell viability (hESC-Derived ECs versus ACL cells)” value:
1. CC/C(=C(\c1ccccc1)c1ccc(OCCN(C)C)cc1)c1ccccc1 [Tamoxifen citrate]  98.3%
2. CC(C)(C)c1ccc(C(O)CCCN2CCC(C(O)(c3ccccc3)c3ccccc3)CC2)cc1 (stereo not drawn) [Terfenadine]  98.3%
3. CC[C@H](C)C(=O)O[C@H]1CCC=C2C=C[C@H](C)[C@H](CC[C@@H]3C[C@@H](O)CC(=O)O3)[C@H]21 [Mevastatin]  98.0%
4. O=C(Nc1ccc([N+](=O)[O-])cc1Cl)c1cc(Cl)ccc1O [Niclosamide]  97.6%
5. Cc1cc(N)c2ccccc2[n+]1CCCCCCCCCCCCCC[n+]1c(C)cc(N)c2ccccc21 [Dequalinium analog, C-14 linker]  96.6%
6. CC[C@@]1(O)C(=O)OCc2c1cc1n(c2=O)Cc2cc3ccccc3nc2-1 [(S)-(+)-Camptothecin]  96.3%
7. CNc1ccc2oc(C[C@H]3O[C@@]4(CC[C@H]3C)O[C@H]([C@H](C)C(=O)c3ccc[nH]3)[C@H](C)C[C@H]4C)nc2c1C(=O)O [Calcimycin]  96.2%
8. C[C@H]1CCC/C=C/[C@@H]2C[C@H](O)C[C@H]2[C@H](O)/C=C/C(=O)O1 [Brefeldin A]  95.5%
9. C[C@@H]1O[C@@H](O[C@H]2C[C@@H](O)[C@]3(CO)[C@H]4[C@H](O)C[C@]5(C)[C@@H](C6=CC(=O)OC6)CC[C@]5(O)[C@@H]4CC[C@]3(O)C2)[C@H](O)[C@H](O)[C@H]1O [Ouabain]  94.6%
10. O=C1c2c(O)ccc(O)c2C(=O)c2c(NCCNCCO)ccc(NCCNCCO)c21 [Mitoxantrone]  94.4%
11. C=CCc1ccccc1OCC(O)CNC1(C)CCC(C(C)(C)NC(=O)CBr)CC1 (stereo not drawn) [Bromoacetyl alprenolol menthane]  93.4%
12. Vinblastine sulfate salt  92.8%
13. C/C(=C\c1ccc(C(=O)O)cc1)c1ccc2c(c1)C(C)(C)CCC2(C)C [TTNPB]  92.6%
14. O=C1NCN(c2ccccc2)C12CCN(CCCC(c1ccc(F)cc1)c1ccc(F)cc1)CC2 [Fluspirilene]  86.7%
15. COc1ccc(CCN(C)CCCC(C#N)(c2ccc(OC)c(OC)c2)C(C)C)cc1OC.Cl (racemic) [(±)-Verapamil hydrochloride]  85.1%
16. COc1cc2c(cc1O)CC[C@@H]1[C@@H]2CC[C@]2(C)[C@@H](O)CC[C@@H]12 [2-methoxyestradiol]  84.3%
17. Ivermectin  78.7%
18. COC(=O)Nc1nc2ccc(C(=O)c3cccs3)cc2[nH]1 [Nocodazole]  76.4%
19. CC(Oc1ccc(Oc2cnc3ccc(Cl)cc3n2)cc1)C(=O)O (stereo not drawn) [XK469]  75.9%
20. COc1cc([C@@H]2c3cc4c(cc3[C@H](O)[C@H]3COC(=O)[C@H]23)OCO4)cc(OC)c1OC [Podophyllotoxin]  75.7%
21. c1ccc2c(c1)[I+]c1ccccc1-2 [Diphenyleneiodonium chloride]  69.6%
22. Cn1c(=O)c2[nH]c(-c3ccccc3)nc2n(C)c1=O [1,3-Dimethyl-8-phenylxanthine]  68.8%
23. COc1cc2c(c(OC)c1OC)-c1ccc(OC)c(=O)cc1[C@@H](NC(C)=O)CC2 [Colchicine]  67.4%
24. COc1cc2c(cc1C(F)(F)F)N(C(=O)Nc1cc(F)cc(-c3cccnc3)c1)CC2 [SB 228357]  62.7%
25. COCC(=O)O[C@]1(CCN(C)CCCc2nc3ccccc3[nH]2)CCc2cc(F)ccc2[C@@H]1C(C)C [Mibefradil dihydrochloride]  62.2%
26. Cc1cc(N)c2ccccc2[n+]1CCCCCCCCCC[n+]1c(C)cc(N)c2ccccc21 [Dequalinium dichloride]  60.6%
27. COc1cc([C@@H]2c3cc4c(cc3[C@@H](O[C@@H]3O[C@@H]5CO[C@@H](C)O[C@H]5[C@H](O)[C@H]3O)[C@H]3COC(=O)[C@H]23)OCO4)cc(OC)c1O [Etoposide]  59.6%
28. Cc1c2ccncc2c(C)c2c1[nH]c1ccccc12 [Ellipticine]  58.5%
29. CN(C)CC/C=C1/c2ccccc2Sc2ccc(Cl)cc21 [Chlorprothixene hydrochloride]  58.1%
30. COC[C@H]1OC(=O)c2coc3c2[C@@]1(C)C1=C(C3=O)[C@@H]2CCC(=O)[C@@]2(C)C[C@H]1OC(C)=O [Wortmannin from Penicillium funiculosum, Wortmannin]  57.9%
31. CN(C)CCCN1c2ccccc2Sc2ccc(Cl)cc21 [Chlorpromazine hydrochloride]  57.2%
32. CCN(CC)C(=O)N[C@H]1C[C@@H]2c3cccc4[nH]cc(c34)C[C@H]2N(C)C1 [R(+)-Terguride]  57.1%
33. CN1C[C@H](CNC(=O)OCc2ccccc2)C[C@@H]2c3cccc4c3c(cn4C)C[C@H]21 [Metergoline]  56.5%
34. Nc1ncn([C@@H]2O[C@H](CO)[C@@H](O)[C@H]2O)c(=O)n1 [5-azacytidine]  56.1%
35. CC(/C=C/c1cccc(Oc2ccc(F)cc2)c1)N(O)C(N)=O (stereo not drawn) [BWB70C]  55.3%
36. CCCCCCCC/C=C\CCCCCCCC(=O)NCCc1ccc(O)c(O)c1 [N-Oleoyldopamine]  54.8%
37. R-(−)-Fluoxetine hydrochloride  54.5%
38. CC(C)(C)c1cc(/C=C(\C#N)C(N)=S)cc(C(C)(C)C)c1O [Tyrphostin AG 879]  54.4%
39. N/C(=N\C(=O)c1nc(Cl)c(N)nc1N)NCc1ccc(Cl)c(Cl)c1 [3′,4′-Dichlorobenzamil]  54.2%
40. CN1CCN(CCCN2c3ccccc3Sc3ccc(C(F)(F)F)cc32)CC1 [Trifluoperazine dihydrochloride]  54.0%
41. C[C@@H](NC(=O)/C(C#N)=C/c1ccc(O)c(O)c1)c1ccccc1 [Tyrphostin AG 527]  53.4%
42. CC1=C(C)C(=O)C(CCCCC#CCCCC#CCO)=C(C)C1=O [AA-861]  53.3%
43. Br.CN=c1nc(-c2ccccc2)n(-c2ccccc2)s1 [SCH-202676 hydrobromide]  53.2%
44. CN(C)CCCN1c2ccccc2Sc2ccc(C(F)(F)F)cc21 [Triflupromazine hydrochloride]  53.0%
45. N[C@@H](Cn1cc(I)c(=O)[nH]c1=O)C(=O)O [S-5-lodowillardiine]  52.8%
46. C#C[C@]1(O)CC[C@H]2[C@@H]3CCC4=Cc5oncc5C[C@]4(C)[C@H]3CC[C@@]21C [Danazol]  52.7%
47. OCCN1CCN(CCCN2c3ccccc3Sc3ccc(C(F)(F)F)cc32)CC1 [Fluphenazine dihydrochloride]  51.4%
48. Cc1c(C)c2c(c(C)c1O)CCC(C)(CN1CCN(c3cc(N4CCCC4)nc(N4CCCC4)n3)CC1)O2.Cl.Cl (stereo not drawn) [U-83836 dihydrochloride]  51.3%
49. CCC(=O)c1ccc2c(c1)N(CCCN(C)C)c1ccccc1S2 [Propionylpromazine hydrochloride]  50.3%
